The test system of one experiment is B16F1 melanoma cells. Put plainly: mitochondrial membrane potential (Mitotracker Red) in B16F1 melanoma cells. The experiment is classed as cell-based, mouse. Conditions: B16F1, 48 hours, FIG. 20. The procedure:
Metabolic Activity Assay. Cells were prepared as previously described. The specific metabolic dye was added and mixed into the cell suspension. This plate was then placed into the 37° incubator for a 20-minute incubation. After incubation, the cells were centrifuged at 300×g for 5 minutes, and the supernatant was removed. The cells were then washed once with PBS/2.5% FBS and transferred into flow cytometric tubes containing 500 μL of PBS/2.5% FBS for analysis.
MitoTracker Red CM-H2XROS (Molecular Probes). One vial of MitoTracker Red provides 10 tests and contains 50 μg. This is unstable and can't be stored. Therefore, when each vial was opened, 43 μL of Dimethysulfoxide (DMSO) were added. […]
B16F1 melanoma cells were cultured at a concentration of 0.5 to 1 million cells per ml. Cells were harvested and analyzed by flow cytometry. […] Five thousand cells were assessed for forward scatter (FS), as a function of cell size, versus side scatter (SS), as a function of cellular granularity. […]
B16F1 melanoma cells of Example 12 were untreated or treated with etomoxir at the indicated concentrations for 48 hours. Cells were harvested, stained with Mitotracker Red (Molecular Probes) as described in Materials and Methods, and analyzed by flow cytometry. The value of Mitotracker Red was then calculated as described in Materials and Methods.

Experiment [1] relates to drug sensitive L1210 cells. Put plainly: cell-surface Fas expression by flow cytometry, L1210. The experiment is classed as cell-based. The protocol:
(§1) Cell Surface Staining. Non-permeabilized cells were stained with antibodies to the cell surface receptors Fas (CD95) (Pharmingen) or with antibodies to uncoupling proteins (anti-UCP2 antibody) (Alpha Diagnostic International). Antibodies for both the isotype control and actual stain were added to the cell suspension, mixed, and then placed on ice for and incubation of 25 minutes in the dark. Subsequently the cells were centrifuged at 300×g for 5 minutes and the supernatant removed. The cells were washed one time with 100 μL of PBS/2.5% FBS and then transferred into flow cyotmetric tubes containing 500 μL of PBS/2.5% FBS for analysis.
(§2) Geometric Mean Fluorescence. When analyzing data on Cell Quest software, a geometric mean value will be given for each histogram plotted. Once the stained sample was plotted against the control (isotype or unstained), geometric mean fluorescence values were obtained for both histogram peaks. The stained control sample value was subtracted from sample to identify the actual fluorescence of the stained sample over that of the control.
(§3) Drug sensitive L1210 cells and drug resistant L1210/DDP cells were cultured with etomoxir for 24 hours (Tx indicates treatment with etomoxir). The level of cell-surface Fas was determined using fluorochrome conjugated anti-Fas antibodies and flow cytometry. The Fas levels are measured relative to a control for staining artifacts. […]

For experiment [2], the system named is HL60 MDR human leukemia cells. Put plainly: percent death of HL60 MDR cells (flow cytometry, live versus dead). Type of experiment: cell-based. (In general: A flow cytometer gives signals particle by particle.)
Procedure: Dot plots as a function of live versus dead cells. The cells were cultured at a concentration of 0.5 to 1 million cells per ml. Cells were untreated or treated with or 2-deoxy-D-glucose and/or etomoxir and/or antibodies to UCP2 and used at dilutions or concentrations as indicated on the figure. The cells were cultured in the presence or absence of etomoxir at 100 micrograms/ml for 24 hours followed by treatment with antibody as indicated for an additional 24 or 48 hours (i.e. totals of 48 hours or 72 hours respectively). Cells were harvested and analyzed by flow cytometry. Each dot on the dot plot represents one cell. Five thousand cells were assessed for forward scatter (FS), as a function of cell size, versus side scatter (SS), as a function of cellular granularity. The upper elipse represents live cells by these criterion and the lower elipse in each dot plot represents the dead cells.
Statistical Analysis, Percents, and Geometric Mean Values Percents. Gating is a tool provided by Cell Quest software and allows for the analysis of a certain population of cells. Gating around both the live and dead cell populations gave a percent of the cell numbers that was in each population. After the gates were drawn, a percent value of dead cells was calculated by taking the number of dead cells divided by the number of total cells and multiplying by one hundred.
HL60 MDR human leukemia cells were cultured as described above under “Materials and Methods”. Cells were untreated or treated with etomoxir, with 2-deoxy-D-glucose, or with a combination of etomoxir and 2-deoxy-D-glucose, at concentrations indicated in FIG. 27 for 24 hours. Cells were harvested and analyzed by flow cytometry.
Referring to FIGS. 31 and 32, HL60 MDR cells, cultured as described in Example 21, were untreated or treated with etomoxir, with 2-deoxy-D-glucose, or with a combination of etomoxir and 2-deoxy-D-glucose, at concentrations indicated in FIG. 31 for 48 hours. Cells were harvested and analyzed by flow cytometry.
Referring to FIGS. 35 and 36, HL60 MDR cells, cultured as described in Example 21, were treated with anti-UCP2 antibody and otherwise untreated or treated simultaneously with etomoxir, 2-deoxy-D-glucose, or both, at concentrations indicated in FIG. 35 for 48 hours. Cells were harvested and analyzed by flow cytometry.
The test system of experiment [3] is human leukemia HL60 cells. Put plainly: DCFDA staining, HL60. Type of experiment: cell-based. Conditions: HL60, 24 hours of incubation, FIG. 14. The procedure: (§4) Flow Cytometry. Cells were harvested, counted, and resuspended at 10^6 cells/100 μl of PBS containing 2.5% fetal calf serum in preparation for flow cytometric analysis. Cells were stained for intracellular H202 using 6-carboxy-2′,7′-dichlorodihydrofluorescein diacetate (DCF-DA, Molecular Probes, Eugene, Oreg.). Briefly, cells were incubated at 37° with 1 mM DCF-DA for 20 minutes, washed twice in PBS containing 2.5% fetal calf serum and analyzed flow cytometrically. Mitochondrial membrane potential was assessed using Mitotracker Red (CM-H2XROS, Molecular Probes, Eugene, Oreg.). The cells were resuspended in PBS containing 2.5% fetal calf serum containing a final concentration of 0.5 micromolar Mitotracker dye. The cells were incubated at 37° for 20 minutes, washed twice in PBS containing 2.5% fetal calf serum and analyzed flow cytometrically. Data were acquired on a Coulter Elite Epics or Excel flow cytometer (Coulter, Hialeah, Fla.) and analyzed with CellQuest software, (Becton Dickinson, San Jose, Calif.). […] Each sample population was classified for cell size (forward scatter) and complexity (side scatter), gated on a population of interest and evaluated using 5,000 cells. […]
The effects of etomoxir on human leukemia HL60 cells was determined. […]

Experiment [4] concerns drug resistant L1210/DDP cells. Put plainly: cell-surface Fas expression by flow cytometry, L1210/DDP. Type of experiment: cell-based. The protocol:
as §1, §2, §3

Experiment [5] relates to human leukemia RU937 cells. Put plainly: mitochondrial membrane potential (MitoTracker), RU937. Type of experiment: cell-based. To be noted: RU937, 24 hours of incubation, FIG. 13. The protocol: as §4
The effects of etomoxir on human leukemia RU937 cells was determined. […]

Each structure is given as a SMILES string.

On to `CCOC(=O)C1(CCCCCCOc2ccc(Cl)cc2)CO1` (stereo not drawn) [etomoxir, 2-(6-(4-chlorophenoxy)-hexyl)-oxirane-2-carboxylic acid ethyl ester], for which, in the experiment on B16F1 melanoma cells, the “mitochondrial membrane potential as measured by Mitotracker Red” value is “increase in mitochondrial membrane potential”. Further, the “cell-surface Fas expression” value in experiment [1] (L1210, cultured with etomoxir for 24 hours) was “significant increases in cell surface Fas”; in experiment [4] (L1210/DDP, cultured with etomoxir for 24 hours), “significant increases in cell surface Fas”. Besides, the “Fas expression, combination with methotrexate” value in experiment [1] (L1210, etomoxir with methotrexate, FIG. 8) is given as “increases the methotrexate-induced increases in Fas”. Besides, the “percent of cell deaths” value in experiment [2] (HL60 MDR cells after 24 hours) was 11%; in experiment [2] (HL60 MDR cells after 48 hours) it was 14%. The “reactive oxygen intermediates, DCFDA staining” value in experiment [3] is on record as “increases in reactive oxygen intermediates”. Moreover, in experiment [4] (methotrexate-treated L1210 DDP, FIG. 8), the “cell surface Fas, combination with methotrexate” value is given as “promotes increases in cell surface Fas”. The “mitochondrial membrane potential (MitoTracker)” value in experiment [5] is given as “increased the levels of mitochondrial membrane potential”.

Values taken from patent publication US8293240B2, “Method of treating drug-resistant cancer” (The Regents of the University of Colorado, priority 2004, dated 2012).
